# From patent US6409810B1, “Water-soluble trisazo compounds, aqueous ink composition and colored article” (Nippon Kayaku Kabushiki Kaisha, priority 1997, dated 2002)
# What was measured:
# Assay type in all cases: physicochemical
# [1] = Test for resistance to water of the recorded images (immersion in water, visual examination of dropout); parameters: key to water fastness plain paper: ∘: Less amount of the compound was dropped out.; Δ: About half of the compound was dropped out.; X: Large amount of the compound was dropped out; settings: immersed in water 2 minutes with mild stirring, dried; for water fastness ink jet paper A: ink jet print on ink jet paper A; for water fastness ink jet paper B: ink jet print on ink jet paper B; for water fastness plain paper: ink jet print on plain paper
# Protocol: (§1) A liquid having the following formulation was prepared and passed through a 0.45 μm membrane filter to obtain an aqueous ink composition for ink jet printers.
# (§2) An ink jet recording was conducted on three different papers, i.e. plain papers (Canon printer paper A4 (TLB5A4S)), ink jet papers A (Color BJ Paper LC 101; ex. Canon) and ink jet papers B (coated papers for ink jet printer STX73 A4; ex. Sharp) by means of an ink jet printer (trade name NOVA JET III; ex. ENCAD). The thus-recorded images were tested with respect to the resistances to light and water and a color rendering property.
# Test specimen was immersed in water contained in a beaker with mild stirring for 2 minutes and dried. Amount of the compound was observed by the visual examination before and after the immersion, and dropout of the compound was judged.
# [2] = Color rendering property (hue change under tungsten light versus standard light source, visual); settings: hue change under tungsten light compared with standard light source
# Protocol: as §1, §2
# Discoloration was judged by the visual examination by comparing the hue change under the tungsten light with that under the standard light source.
# [3] = Test for resistance to light of the recorded images (carbon arc fade meter, Blue Scale JIS L-0841); settings: 20 hours carbon arc fade meter; for light fastness (rank) ink jet paper A: ink jet print on ink jet paper A (Color BJ Paper LC 101, Canon); for light fastness (rank) ink jet paper B: ink jet print on ink jet paper B (coated paper STX73 A4, Sharp); for light fastness (rank) plain paper: ink jet print on plain paper (Canon TLB5A4S)
# Protocol: as §1, §2
# The recorded images were irradiated with light for 20 hours by means of a carbon arc fade meter (ex. SUGA Shikenkisha). Light fastness was judged according to the Blue Scale for light resistance standard as defined in JIS L-0841.
water fastness ink jet paper A [1],water fastness ink jet paper B [1],water fastness plain paper [1],color rendering property [2],light fastness (rank) ink jet paper A [3],light fastness (rank) ink jet paper B [3],light fastness (rank) plain paper [3],SMILES
◯,◯,Δ,◯,3-4 rank,4 rank,4-5 rank,COc1cc(N=Nc2cc(S(=O)(=O)O)cc3cc(S(=O)(=O)O)cc(O)c23)c(NC(C)=O)cc1N=Nc1c(S(=O)(=O)O)cc2ccc(N=Nc3ccc(O)cc3O)cc2c1O [compound 0012]
◯,◯,Δ,◯,5 rank,5 rank,5 rank,COc1cc(N=Nc2cc(S(=O)(=O)O)cc3cc(S(=O)(=O)O)cc(O)c23)c(NC(C)=O)cc1N=Nc1c(S(=O)(=O)O)cc2ccc(N=Nc3cc(S(=O)(=O)O)c(N)cc3N)cc2c1O [compound 0014]
◯,◯,Δ˜◯,◯,5 rank,5 rank,5 rank,COCCOc1cc(N=Nc2cc(S(=O)(=O)O)cc3cc(S(=O)(=O)O)cc(O)c23)c(NC(C)=O)cc1N=Nc1c(S(=O)(=O)O)cc2ccc(N=Nc3ccc(N)cc3N)cc2c1O [compound 0019]
◯,◯,Δ˜◯,◯,4 rank,5 rank,4-5 rank,COCCOc1cc(N=Nc2cc(S(=O)(=O)O)cc3cc(S(=O)(=O)O)cc(O)c23)c(NC(C)=O)cc1N=Nc1c(S(=O)(=O)O)cc2ccc(N=Nc3ccc(N)cc3O)cc2c1O [compound 0020]
◯,◯,Δ˜◯,◯,5 rank,5 rank,5 rank,COCCOc1cc(N=Nc2cc(S(=O)(=O)O)cc3cc(S(=O)(=O)O)cc(O)c23)c(NC(C)=O)cc1N=Nc1c(S(=O)(=O)O)cc2ccc(N=Nc3cc(S(=O)(=O)O)c(N)cc3N)cc2c1O [compound 0022]
◯,◯,x˜Δ,◯,3 rank,4 rank,4-5 rank,O=S(=O)(O)c1cc(O)c2c(N=Nc3ccc(N=Nc4c(S(=O)(=O)O)cc5ccc(N=Nc6ccc(O)cc6O)cc5c4O)c4cc(S(=O)(=O)O)ccc34)cc(S(=O)(=O)O)cc2c1 [compound 0025]
◯,◯,x˜Δ,◯,4 rank,5 rank,5 rank,Nc1cc(N)c(S(=O)(=O)O)cc1N=Nc1ccc2cc(S(=O)(=O)O)c(N=Nc3ccc(N=Nc4cc(S(=O)(=O)O)cc5cc(S(=O)(=O)O)cc(O)c45)c4ccc(S(=O)(=O)O)cc34)c(O)c2c1 [compound 0027]
◯,◯,◯,◯,4 rank,5 rank,4-5 rank,COc1cc(N=Nc2cc(S(=O)(=O)O)cc3cc(S(=O)(=O)O)cc(O)c23)c(N)cc1N=Nc1c(S(=O)(=O)O)cc2ccc(N=Nc3cc(S(=O)(=O)O)c(N)cc3N)cc2c1O [compound 0048]
◯,◯,◯,◯,4 rank,5 rank,4-5 rank,COCCOc1cc(N=Nc2cc(S(=O)(=O)O)cc3cc(S(=O)(=O)O)cc(O)c23)c(N)cc1N=Nc1c(S(=O)(=O)O)cc2ccc(N=Nc3cc(S(=O)(=O)O)c(N)cc3N)cc2c1O [compound 0051]
◯,◯,Δ,◯,4 rank,5 rank,4-5 rank,COc1cc(N=Nc2cc(S(=O)(=O)O)cc3cc(S(=O)(=O)O)cc(O)c23)c(NC(C)=O)cc1N=Nc1c(S(=O)(=O)O)cc2cc(S(=O)(=O)O)c(N=Nc3ccc(N)cc3O)cc2c1O [compound 0231]
◯,◯,Δ˜◯,◯,4 rank,4 rank,4 rank,COc1cc(N=Nc2cc(S(=O)(=O)O)cc3cc(S(=O)(=O)O)cc(O)c23)c(NC(C)=O)cc1N=Nc1c(S(=O)(=O)O)cc2cc(S(=O)(=O)O)c(N=Nc3ccc(O)cc3O)cc2c1O [compound 0232]
◯,◯,Δ,◯,5 rank,5 rank,5 rank,COc1cc(N=Nc2cc(S(=O)(=O)O)cc3cc(S(=O)(=O)O)cc(O)c23)c(NC(C)=O)cc1N=Nc1c(S(=O)(=O)O)cc2cc(S(=O)(=O)O)c(N=Nc3cc(S(=O)(=O)O)c(N)cc3N)cc2c1O [compound 0234]
◯,◯,◯,◯,4 rank,5 rank,4-5 rank,COc1cc(N=Nc2cc(S(=O)(=O)O)cc3cc(S(=O)(=O)O)cc(O)c23)c(N)cc1N=Nc1c(S(=O)(=O)O)cc2cc(S(=O)(=O)O)c(N=Nc3ccc(N)cc3O)cc2c1O [compound 0264]
